Data taken from patent US10294202B2, “Pyrrolidinones as herbicides” (FMC Corporation, priority 2013, dated 2019).

What was measured:
giant foxtail = experiment: Test A pre-/postemergence herbicide test; assay type: in vivo, Setaria faberii
How it was run: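 Approximately 10 days after treatment in the greenhouse, plants were compared with untreated controls and given a 0–100 visual injury rating. Applications: preemergence directed soil spray; postemergence on 2–10 cm plants at the one- to two-leaf stage.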

rice = experiment: Test B flooded paddy test; assay type: in vivo, Oryza sativa; conditions: 500 g ai/ha, Flood; scale of 0 to 100 where 0 is no effect and 100 is complete control
How it was run: (§1)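 First, plants reach the 2-leaf stage; next, pots are flooded to 3 cm and compound is delivered into the water; finally, after 13 to 15 greenhouse days at constant depth, injury is graded visually from 0 to 100 against controls.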

sedge, umbrella = experiment: Test B flooded paddy test; assay type: in vivo, Cyperus difformis; conditions: 500 g ai/ha, Flood; scale of 0 to 100 where 0 is no effect and 100 is complete control
How it was run: as §1

ducksalad = experiment: Test B flooded paddy test; assay type: in vivo, Heteranthera limosa; conditions: 500 g ai/ha, Flood; scale of 0 to 100 where 0 is no effect and 100 is complete control
How it was run: as §1

barnyardgrass = experiment: Test B flooded paddy test; assay type: in vivo, Echinochloa crus-galli; conditions: 500 g ai/ha, Flood; scale of 0 to 100 where 0 is no effect and 100 is complete control
How it was run: as §1

blackgrass = experiment: Test C pre-/postemergence herbicide test; assay type: in vivo, Alopecurus myosuroides
How it was run: (§2)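 Plants grown and held in a greenhouse for 13 to 15 days post-spray, then rated 0–100 by visual comparison with controls. Pre treatments targeted seeds in loam and sand; post treatments targeted 1- to 4-leaf plants in peat-based potting medium.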

nutsedge, yellow = experiment: Test C pre-/postemergence herbicide test; assay type: in vivo, Cyperus esculentus
How it was run: as §2

pigweed = experiment: Test C pre-/postemergence herbicide test; assay type: in vivo, Amaranthus retroflexus
How it was run: as §2

ragweed = experiment: Test C pre-/postemergence herbicide test; assay type: in vivo, Ambrosia elatior
How it was run: as §2

oilseed rape = experiment: Test C pre-/postemergence herbicide test; assay type: in vivo, Brassica napus
How it was run: as §2

waterhemp = experiment: Test C pre-/postemergence herbicide test; assay type: in vivo, Amaranthus rudis
How it was run: as §2

oat, wild = experiment: Test C pre-/postemergence herbicide test; assay type: in vivo, Avena fatua; conditions: Postemergence
How it was run: as §2

velvetleaf = experiment: Test C pre-/postemergence herbicide test; assay type: in vivo, Abutilon theophrasti
How it was run: as §2

[1] = Postemergence, 31 g ai/ha, scale 0 to 100 (0 no effect, 100 complete control)
[2] = Postemergence, 62 g ai/ha, scale 0 (no effect) to 100 (complete control)
[3] = Postemergence, 125 g ai/ha, scale 0 to 100 (0 no effect, 100 complete control)
[4] = Postemergence, 250 g ai/ha, scale 0 to 100 (0 no effect, 100 complete control)
[5] = Preemergence, 31 g ai/ha, scale 0 to 100, 0 is no effect and 100 is complete control
[6] = Preemergence, 62 g ai/ha, scale 0 to 100 (0 no effect, 100 complete control)
[7] = Preemergence, 125 g ai/ha, scale 0 to 100

Cc1cccc(NC(=O)C2C(=O)NCC2c2cccc(C(F)(F)F)c2)c1 (stereo not shown) [Compound 317]
Plant response rating, Foxtail, Giant (giant foxtail; Postemergence, 125 g ai/ha, visual rating on 0 to 100 scale (0 no effect, 100 complete control), approx. 10 days): 80
Plant response rating, Foxtail, Giant (giant foxtail; Postemergence, 500 g ai/ha, 0 to 100 scale (0 no effect, 100 complete control)): 90
Plant response rating, Foxtail, Giant (giant foxtail; Preemergence, 125 g ai/ha, 0 to 100 scale where 0 is no effect and 100 is complete control): 90
Foxtail, Giant plant response rating (giant foxtail; Preemergence, 500 g ai/ha, visual rating on 0 to 100 scale (0 no effect, 100 complete control)): 90
Plant response rating, Rice (rice): 0
Plant response rating, Sedge, Umbrella (sedge, umbrella): 0
Plant response rating, Ducksalad (ducksalad): 80
Plant response rating, Barnyardgrass (barnyardgrass): 75
Plant response rating, Blackgrass (blackgrass; [1]): 0
Plant response rating, Blackgrass (blackgrass; [2]): 0
Plant response rating, Blackgrass (blackgrass; [3]): 0
Plant response rating, Blackgrass (blackgrass; [4]): 0
Blackgrass plant response rating (blackgrass; [5]): 0
Blackgrass plant response rating (blackgrass; [6]): 40
Plant response rating, Blackgrass (blackgrass; [7]): 50
Plant response rating (scale of 0 to 100), Blackgrass (blackgrass; Preemergence, 250 g ai/ha): 50
Plant response rating, Nutsedge, Yellow (nutsedge, yellow; [1]): 0
Plant response rating, Nutsedge, Yellow (nutsedge, yellow; [2]): 0
Plant response rating, Nutsedge, Yellow (nutsedge, yellow; [3]): 0
Plant response rating, Nutsedge, Yellow (nutsedge, yellow; [4]): 0
Nutsedge, Yellow plant response rating (nutsedge, yellow; [5]): 0
Nutsedge, Yellow plant response rating (nutsedge, yellow; [6]): 0
Plant response rating, Nutsedge, Yellow (nutsedge, yellow; [7]): 20
Plant response rating (scale of 0 to 100), Nutsedge, Yellow (nutsedge, yellow; Preemergence, 250 g ai/ha): 70
Plant response rating, Pigweed (pigweed; [1]): 5
Plant response rating, Pigweed (pigweed; [2]): 5
Plant response rating, Pigweed (pigweed; [3]): 5
Plant response rating, Pigweed (pigweed; [4]): 5
Pigweed plant response rating (pigweed; [5]): 0
Pigweed plant response rating (pigweed; [6]): 0
Plant response rating, Pigweed (pigweed; [7]): 0
Plant response rating, Ragweed (ragweed; [1]): 0
Plant response rating, Ragweed (ragweed; [2]): 0
Plant response rating, Ragweed (ragweed; [3]): 25
Plant response rating, Ragweed (ragweed; [4]): 40
Ragweed plant response rating (ragweed; [6]): 0
Plant response rating, Ragweed (ragweed; [7]): 0
Plant response rating, Oilseed Rape (oilseed rape; [1]): 0
Plant response rating, Oilseed Rape (oilseed rape; [2]): 0
Plant response rating, Oilseed Rape (oilseed rape; [3]): 0
Plant response rating, Oilseed Rape (oilseed rape; [4]): 0
Oilseed Rape plant response rating (oilseed rape; [5]): 0
Oilseed Rape plant response rating (oilseed rape; [6]): 0
Plant response rating, Oilseed Rape (oilseed rape; [7]): 0
Plant response rating (scale of 0 to 100), Oilseed Rape (oilseed rape; Preemergence, 250 g ai/ha): 0
Plant response rating, Waterhemp (waterhemp; [1]): 0
Plant response rating, Waterhemp (waterhemp; [2]): 0
Plant response rating, Waterhemp (waterhemp; [3]): 20
Plant response rating, Waterhemp (waterhemp; [4]): 0
Waterhemp plant response rating (waterhemp; [6]): 0
Plant response rating, Waterhemp (waterhemp; [7]): 10
Plant response rating, Oat, Wild (oat, wild; 31 g ai/ha, scale 0 to 100 (0 no effect, 100 complete control)): 0
Plant response rating, Oat, Wild (oat, wild; 62 g ai/ha, scale 0 (no effect) to 100 (complete control)): 0
Plant response rating, Oat, Wild (oat, wild; 125 g ai/ha, scale 0 to 100 (0 no effect, 100 complete control)): 0
Plant response rating, Oat, Wild (oat, wild; 250 g ai/ha, scale 0 to 100 (0 no effect, 100 complete control)): 0
Plant response rating, Velvetleaf (velvetleaf; [1]): 0
Plant response rating, Velvetleaf (velvetleaf; [2]): 0
Plant response rating, Velvetleaf (velvetleaf; [3]): 0
Plant response rating, Velvetleaf (velvetleaf; [4]): 0
Velvetleaf plant response rating (velvetleaf; [6]): 0
Plant response rating, Velvetleaf (velvetleaf; [7]): 0
